Test results taken from PMC8893300, “A Dynamic Mass Redistribution Assay for the Human Sweet Taste Receptor Uncovers G-Protein Dependent Biased Ligands” (Frontiers in Pharmacology, 2022).

Tested on: human sweet taste receptor (hT1R2/hT1R3) coupled to Gα16gust25
Test: FLIPR calcium mobilization assay, R2/R3 Gα16gust25 U2OS cells
Format: cell-based
Conditions: for ΔlogR FLIPR Mean: FLIPR-Gα16gust25, operational model, logR minus sucralose logR; for ΔΔlogR Mean: ΔlogR FLIPR-Gα16gust25 minus ΔlogR DMR
Method: The R2/R3 U2OS clone produced above was subsequently transfected with a linearized plasmid encoding Gα16gust25 in pcDNA3-neo. Transfected cells surviving triple selection in growth medium containing 0.5 μg/ml Puromycin (for hT1R2 expression), 100 μg/ml zeocin (for hT1R3 expression) and 500 μg/ml geneticin (Gα16gust25 expression) were diluted at various densities to obtain isolated colonies. Individual colonies were expanded, and the presence of functional human sweet receptor and G protein was evaluated in a FLIPR assay using sucralose as the agonist. Selected colonies were further evaluated with a larger panel of agonists. One clone, called L1F2, was used for this study.
Cells were gently mixed with the virus at a multiplicity of infection (MOI) of 5. Using a multidrop, 70 μl per well of the cell and virus mixture was dispensed in a 384-well clear bottom plate (Fisher). After 24 h of incubation in a humidified 37°C tissue culture incubator, trichostatin A was added to a final concentration of 0.3 μM and the cells were incubated for another 18–24 h at 34°C. On the day of the experiment, cells were loaded with 4 μM of the calcium indicator Fluo-4 AM (Invitrogen) in D-PBS for 1 h at room temperature. After washing the cells with D-PBS using a cell washer (BioTek) and a 30-minute rest time, the cell plate and the compound plate were transferred into the FLIPR-Tetra (Molecular Devices). Imaging and data analysis was performed as described ([Servant et al., 2010]). Alternatively, R2/R3 Gα16gust25 U2OS cells were re-suspended at a final density of 2.25 × 10^5 viable cells per mL and the mixture was dispensed in a 384-well clear bottom plate (Fisher) at 80 μl per well. Loading and the FLIPR assay were run as described above. When indicated, data for agonist dose-responses were normalized to data obtained with a maximum concentration of sucralose (1 mM) and then fitted and plotted using GraphPad Prism (San Diego, CA) and non-linear regression analysis.
To visualize and assess bias between the two different cell-based assays, we used bias plotting as described ([Drake et al., 2008]; [Peters and Scott, 2009]; [Gregory et al., 2010]; [Thomsen et al., 2012]; [Kenakin, 2015]; [Montero-Melendez et al., 2015]). To calculate relative potency bias between the two assays, we calculated a ratio of the negative logarithm of the EC50 (in M) of each agonist to that of sucralose (a sucralose dose-response was performed as a control on the same day) as described: pEC50 compound X–pEC50 sucralose. This value, that we termed pEC50Ratio (sucralose) or pEC50R (sucralose), was calculated with EC50 values obtained in the two assay systems. This transformation also allowed determination of an average and a standard error for the pEC50R (sucralose). The two sets of data (DMR and FLIPR data) were then analyzed with an un-paired t-test (α = 0.05). To calculate relative efficacy bias between the two assays, we captured the top asymptote value from each activity-normalized dose-response curve, as provided by the curve fit, calculated an average and a standard deviation (sd) for each agonist and then analyzed the data pairs with an un-paired t-test (α = 0.05). Assay bias was also estimated using an operational model ([Kenakin et al., 2012]; [Nagi and Pineyro, 2016]). The following steps were followed: 1) Using the PRISM software, we re-analyzed each ligand’s dose-response data obtained in each assay with non-linear regression and the users-defined equation “New Operational Model with TauKa ratios” and retrieved logR values from the fits.

Compound	ΔlogR FLIPR Mean	ΔΔlogR Mean
COC(=O)[C@H](Cc1ccccc1)NC(=O)[C@H](CC(=O)O)NCCC(C)(C)C [Neotame]	1.52	0.36
CC(C)Oc1ccc(NC(=S)NCc2ccc[nH]2)cc1 [S819]	2.40	−0.13
CC(C)Oc1ccc(NC(=S)NCc2cccs2)cc1 [S5227]	1.73	−0.12
